The values that follow are results of earlier work, collected in EP0409903B1, “PROCESS FOR PREPARING POLYUNSATURATED FATTY ACIDS” (STAROIL LIMITED, priority 1988, dated 1989).

The conditions of the series: ingestion of DHA in ester form and/or as the free acid; Hiroi at al., 1978.

As for `CC/C=C\C/C=C\C/C=C\C/C=C\C/C=C\C/C=C\CCC(=O)O` [DHA, docosahexaenoic acid], the “DHA and EPA levels in plasmatic phospholipids” value was “significantly increases”.
